Experimental data as given in the supplement of paper PMC10307832.

Tests used:
Assay in all cases: relative viability (nuclei count vs DMSO), 5 days (fraction); higher = more cells survive
BEN = test system: BEN
Procedure, shortened: (§1)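 Cells from lung cancer lines were seeded into 1536-well plates and, one day later, dosed by pin tool. Treatments were either a single drug or a fixed dose of an anchor drug with five library-drug doses (not always all listed) in √10 steps. After 5 days, nuclei were stained in a one-step fixation (final 0.05% Triton X-100, 1% formaldehyde, 1 ug/ml Hoechst) and counted on 4× images, and relative viability is the treated-to-vehicle nuclei ratio, as the median of duplicate plates.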

EKVX = test system: EKVX
Procedure, shortened: as §1

HCC-827 = test system: HCC-827
Procedure, shortened: as §1

HOP-62 = test system: HOP-62
Procedure, shortened: as §1

LCLC-103H = test system: LCLC-103H
Procedure, shortened: as §1

LK-2 = test system: LK-2
Procedure, shortened: as §1

LOU-NH91 = test system: LOU-NH91
Procedure, shortened: as §1

LXF-289 = test system: LXF-289
Procedure, shortened: as §1

NCI-H1355 = test system: NCI-H1355
Procedure, shortened: as §1

NCI-H1437 = test system: NCI-H1437
Procedure, shortened: as §1

NCI-H1666 = test system: NCI-H1666
Procedure, shortened: as §1

NCI-H1944 = test system: NCI-H1944
Procedure, shortened: as §1

NCI-H1993 = test system: NCI-H1993
Procedure, shortened: as §1

NCI-H2126 = test system: NCI-H2126
Procedure, shortened: as §1

NCI-H2170 = test system: NCI-H2170
Procedure, shortened: as §1

NCI-H441 = test system: NCI-H441
Procedure, shortened: as §1

NCI-H647 = test system: NCI-H647
Procedure, shortened: as §1

NCI-H661 = test system: NCI-H661
Procedure, shortened: as §1

NCI-H727 = test system: NCI-H727
Procedure, shortened: as §1

PC-14 = test system: PC-14
Procedure, shortened: as §1

RERF-LC-KJ = test system: RERF-LC-KJ
Procedure, shortened: as §1

SK-MES-1 = test system: SK-MES-1
Procedure, shortened: as §1

Work on `CN1CCN(CCOc2cc(OC3CCOCC3)c3c(Nc4c(Cl)ccc5c4OCO5)ncnc3c2)CC1` [Saracatinib] + Cc1nc(NC(=O)N2CCC[C@H]2C(N)=O)sc1-c1ccnc(C(C)(C)C(F)(F)F)c1 [Alpelisib] (partner 2 µM) yielded a relative viability (BEN; first compound 0.02 µM) of 1.08, a relative viability (BEN; first compound 0.2 µM) of 1.03 and a relative viability (BEN; first compound 0.6325 µM) of 1.07. For the same compound, the relative viability (BEN; first compound 2 µM) was 0.85, the relative viability (EKVX; first compound 0.02 µM) was 0.897 and the relative viability (EKVX; first compound 0.2 µM) was 0.551. It also gave a relative viability (EKVX; first compound 0.6325 µM) of 0.671, a relative viability (EKVX; first compound 2 µM) of 0.325 and a relative viability (HCC-827; first compound 0.02 µM) of 0.922. It also gave a relative viability (HCC-827; first compound 0.2 µM) of 0.524, a relative viability (HCC-827; first compound 0.6325 µM) of 0.195 and a relative viability (HCC-827; first compound 2 µM) of 0.157. For the same compound, the relative viability (HOP-62; first compound 0.02 µM) was 0.989, the relative viability (HOP-62; first compound 0.2 µM) was 0.782 and the relative viability (HOP-62; first compound 0.6325 µM) was 0.801. For the same compound, the relative viability (HOP-62; first compound 2 µM) was 0.749, the relative viability (LCLC-103H; first compound 0.02 µM) was 0.972 and the relative viability (LCLC-103H; first compound 0.2 µM) was 0.831. For the same compound, the relative viability (LCLC-103H; first compound 0.6325 µM) was 0.899, the relative viability (LCLC-103H; first compound 2 µM) was 0.893 and the relative viability (LK-2; first compound 0.02 µM) was 0.956. The relative viability (LK-2; first compound 0.2 µM) was 0.851, the relative viability (LK-2; first compound 0.6325 µM) was 1.02 and the relative viability (LK-2; first compound 2 µM) was 0.531. The relative viability (LOU-NH91; first compound 0.02 µM) was 0.683, the relative viability (LOU-NH91; first compound 0.2 µM) was 0.5 and the relative viability (LOU-NH91; first compound 0.6325 µM) was 0.554. The relative viability (LOU-NH91; first compound 2 µM) was 0.449, the relative viability (LXF-289; first compound 0.02 µM) was 1.03 and the relative viability (LXF-289; first compound 0.2 µM) was 0.908. The relative viability (LXF-289; first compound 0.6325 µM) was 1.02, the relative viability (LXF-289; first compound 2 µM) was 0.985 and the relative viability (NCI-H1355; first compound 0.02 µM) was 0.848. The relative viability (NCI-H1355; first compound 0.2 µM) was 0.833, the relative viability (NCI-H1355; first compound 0.6325 µM) was 0.861 and the relative viability (NCI-H1355; first compound 2 µM) was 0.794. It also gave a relative viability (NCI-H1437; first compound 0.02 µM) of 0.987, a relative viability (NCI-H1437; first compound 0.2 µM) of 0.894 and a relative viability (NCI-H1437; first compound 0.6325 µM) of 0.845. The relative viability (NCI-H1437; first compound 2 µM) was 0.895, the relative viability (NCI-H1666; first compound 0.02 µM) was 1.22 and the relative viability (NCI-H1666; first compound 0.2 µM) was 0.936. It also gave a relative viability (NCI-H1666; first compound 0.6325 µM) of 1.2, a relative viability (NCI-H1666; first compound 2 µM) of 0.837 and a relative viability (NCI-H1944; first compound 0.02 µM) of 0.847. It also gave a relative viability (NCI-H1944; first compound 0.6325 µM) of 0.808, a relative viability (NCI-H1944; first compound 2 µM) of 0.524 and a relative viability (NCI-H1993; first compound 0.02 µM) of 0.68. It also gave a relative viability (NCI-H1993; first compound 0.2 µM) of 0.531, a relative viability (NCI-H1993; first compound 2 µM) of 0.656 and a relative viability (NCI-H2126; first compound 0.02 µM) of 0.751. It also gave a relative viability (NCI-H2126; first compound 0.2 µM) of 0.654, a relative viability (NCI-H2126; first compound 0.6325 µM) of 0.749 and a relative viability (NCI-H2126; first compound 2 µM) of 0.622. For the same compound, the relative viability (NCI-H2170; first compound 0.02 µM) was 0.731, the relative viability (NCI-H2170; first compound 0.2 µM) was 0.749 and the relative viability (NCI-H2170; first compound 0.6325 µM) was 0.752. The relative viability (NCI-H2170; first compound 2 µM) was 0.464, the relative viability (NCI-H441; first compound 0.02 µM) was 0.715 and the relative viability (NCI-H441; first compound 0.2 µM) was 0.544. The relative viability (NCI-H441; first compound 0.6325 µM) was 1.03, the relative viability (NCI-H441; first compound 2 µM) was 0.772 and the relative viability (NCI-H647; first compound 0.02 µM) was 1.09. For the same compound, the relative viability (NCI-H647; first compound 0.2 µM) was 0.83, the relative viability (NCI-H647; first compound 0.6325 µM) was 0.635 and the relative viability (NCI-H647; first compound 2 µM) was 0.36. For the same compound, the relative viability (NCI-H661; first compound 0.02 µM) was 0.838, the relative viability (NCI-H661; first compound 0.2 µM) was 0.329 and the relative viability (NCI-H661; first compound 0.6325 µM) was 0.357. It also gave a relative viability (NCI-H661; first compound 2 µM) of 0.377, a relative viability (NCI-H727; first compound 0.02 µM) of 0.558 and a relative viability (NCI-H727; first compound 0.2 µM) of 0.461. The relative viability (NCI-H727; first compound 0.6325 µM) was 0.334, the relative viability (NCI-H727; first compound 2 µM) was 0.308 and the relative viability (PC-14; first compound 0.02 µM) was 0.996. It also gave a relative viability (PC-14; first compound 0.2 µM) of 0.681, a relative viability (PC-14; first compound 0.6325 µM) of 0.46 and a relative viability (PC-14; first compound 2 µM) of 0.172. It also gave a relative viability (RERF-LC-KJ; first compound 0.02 µM) of 0.894, a relative viability (RERF-LC-KJ; first compound 0.2 µM) of 0.954 and a relative viability (RERF-LC-KJ; first compound 0.6325 µM) of 0.831. For the same compound, the relative viability (RERF-LC-KJ; first compound 2 µM) was 0.662, the relative viability (SK-MES-1; first compound 0.02 µM) was 0.713 and the relative viability (SK-MES-1; first compound 0.2 µM) was 0.77. It also gave a relative viability (SK-MES-1; first compound 0.6325 µM) of 0.76 and a relative viability (SK-MES-1; first compound 2 µM) of 0.644.
